The numbers were not newly measured in patent US11685721B2, “Human plasma kallikrein inhibitors” (BioCryst Pharmaceuticals, Inc., priority 2014, dated 2023), which cites them from elsewhere.

In the series the test system is patients with hereditary angioedema (HAE).

As for `NC(N)=NCCC[C@@H](N)C(=O)N[C@@H](CCCN=C(N)N)C(=O)N1CCC[C@H]1C(=O)N1C[C@H](O)C[C@H]1C(=O)NCC(=O)N[C@@H](Cc1cccs1)C(=O)N[C@@H](CO)C(=O)N1Cc2ccccc2C[C@@H]1C(=O)N1[C@H](C(=O)N[C@@H](CCCN=C(N)N)C(=O)O)C[C@@H]2CCCC[C@@H]21` [Icatibant], the “treating HAE” value (hereditary angioedema) is on record as “effective”. Regarding ecallantide [DX-88], the edema result (patients with hereditary angioedema (HAE)) is listed as “alleviates edema”.
